Values after ≈ are worked out from the molar mass of the structure shown.
What was measured:
Test in all cases: in vitro antibacterial evaluation, MIC by broth dilution
Format in all cases: cell-based
Enterococcus sp. = conditions: broth dilution, 18 hours at 35° C.
Summary of the method: (§1)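 MIC = lowest antibiotic concentration preventing visible growth; inoculum 5×10^5 CFU/mL; drug range 64-0.06 μg/mL; Muller-Hinton II […]; NCCLS M7-A2 guidance.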

Staphylococcus sp. = conditions: broth dilution, 18 hours at 35° C.; for MIC Staphylococcus aureus (ATCC 29213): strain ATCC 29213; for MIC Staphylococcus aureus (GC 1131): strain GC 1131; for MIC Staphylococcus aureus (GC 3051): strain GC 3051; for MIC Staphylococcus aureus (GC 3053): strain GC 3053; for MIC Staphylococcus aureus (GC 4541): strain GC 4541; for MIC Staphylococcus aureus (GC 4542): strain GC 4542; for MIC Staphylococcus aureus-SMITH (GC 4543): strain GC 4543; for MIC Staphylococcus aureus (GC 4544): strain GC 4544; for MIC Staphylococcus aureus (GC 4545): strain GC 4545; for MIC Staphylococcus haemolyticus (GC 4546): strain GC 4546; for MIC Coagulase Negative Staphylococcus (GC 4547): strain GC 4547; for MIC Coagulase Negative Staphylococcus (GC 4548): strain GC 4548; for MIC Coagulase Negative Staphylococcus (GC 4549): strain GC 4549; for MIC Coagulase Negative Staphylococcus (GC 4551): strain GC 4551
Summary of the method: as §1

Streptococcus sp. = conditions: broth dilution, 18 hours at 35° C.
Summary of the method: as §1

Escherichia coli = conditions: 18 hours at 35° C.
Summary of the method: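 Broth dilution MIC per NCCLS M7-A2 in Mueller-Hinton II medium, inoculum 5×10^5 CFU/mL, antibiotic range 64-0.06 μg/mL. MIC taken as lowest concentration inhibiting growth.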

CCCCCCC(=O)Nc1cc(CC2NC(=O)C(C(C)c3ccccc3)NC(=O)CNC(=O)C(CO)NC(=O)C(C(O)C3CNC(=N)N3C3OC(CO)C(O)C(O)C3O)NC(=O)C(C(O)C3CNC(=N)N3)NC2=O)ccc1O (stereo not drawn) [Example 16, Cyclo[glycyl-β-methylphenylalanyl-3-(heptanamido)tyrosyl-3-(2-iminoimidazolidin-4-yl)seryl-3-(3-hexopyranosyl-2-iminoimidazolidin-4-yl)serylseryl]]
MIC Enterococcus faecalis (ATCC 29212) (Enterococcus sp.; strain ATCC 29212): >128 µg/mL
MIC Enterococcus faecalis (GC 2242) (Enterococcus sp.; strain GC 2242): >128 µg/mL
MIC Enterococcus faecium (GC 2243) (Enterococcus sp.; strain GC 2243): 128 µg/mL (≈ 117 µM)
MIC Enterococcus faecalis (GC 2691) (Enterococcus sp.; strain GC 2691): >128 µg/mL
MIC Enterococcus faecalis (GC 3059) (Enterococcus sp.; strain GC 3059): >128 µg/mL
MIC Enterococcus faecalis (GC 4552) (Enterococcus sp.; strain GC 4552): >128 µg/mL
MIC Enterococcus faecalis (GC 4553) (Enterococcus sp.; strain GC 4553): 64 µg/mL (≈ 58.3 µM)
MIC Enterococcus faecalis (GC 4554) (Enterococcus sp.; strain GC 4554): >128 µg/mL
MIC Enterococcus faecium (GC 4556) (Enterococcus sp.; strain GC 4556): >128 µg/mL
MIC Enterococcus faecium (GC 4557) (Enterococcus sp.; strain GC 4557): 16 µg/mL (≈ 14.6 µM)
MIC Enterococcus avium (GC 4558) (Enterococcus sp.; strain GC 4558): 128 µg/mL (≈ 117 µM)
MIC Enterococcus faecalis (GC 6189) (Enterococcus sp.; strain GC 6189): >128 µg/mL
MIC Staphylococcus aureus (ATCC 29213) (Staphylococcus sp.): 128 µg/mL (≈ 117 µM)
MIC Staphylococcus aureus (GC 1131) (Staphylococcus sp.): 128 µg/mL (≈ 117 µM)
MIC Staphylococcus aureus (GC 3051) (Staphylococcus sp.): 128 µg/mL (≈ 117 µM)
MIC Staphylococcus aureus (GC 3053) (Staphylococcus sp.): 128 µg/mL (≈ 117 µM)
MIC Staphylococcus aureus (GC 4541) (Staphylococcus sp.): 64 µg/mL (≈ 58.3 µM)
MIC Staphylococcus aureus (GC 4542) (Staphylococcus sp.): 128 µg/mL (≈ 117 µM)
MIC Staphylococcus aureus-SMITH (GC 4543) (Staphylococcus sp.): 64 µg/mL (≈ 58.3 µM)
MIC Staphylococcus aureus (GC 4544) (Staphylococcus sp.): 128 µg/mL (≈ 117 µM)
MIC Staphylococcus aureus (GC 4545) (Staphylococcus sp.): 32 µg/mL (≈ 29.1 µM)
MIC Staphylococcus haemolyticus (GC 4546) (Staphylococcus sp.): 8 µg/mL (≈ 7.28 µM)
MIC Coagulase Negative Staphylococcus (GC 4547) (Staphylococcus sp.): 16 µg/mL (≈ 14.6 µM)
MIC Coagulase Negative Staphylococcus (GC 4548) (Staphylococcus sp.): 32 µg/mL (≈ 29.1 µM)
MIC Coagulase Negative Staphylococcus (GC 4549) (Staphylococcus sp.): 4 µg/mL (≈ 3.64 µM)
MIC Coagulase Negative Staphylococcus (GC 4551) (Staphylococcus sp.): 32 µg/mL (≈ 29.1 µM)
MIC Coagulase Negative Staphylococcus (GC 6257) (Staphylococcus sp.; strain GC 6257): 8 µg/mL (≈ 7.28 µM)
MIC Streptococcus pneumoniae (ATCC 6301) (Streptococcus sp.; strain ATCC 6301): 128 µg/mL (≈ 117 µM)
MIC Streptococcus pneumoniae (GC 1894) (Streptococcus sp.; strain GC 1894): 64 µg/mL (≈ 58.3 µM)
MIC Streptococcus pyogenes (GC 4563) (Streptococcus sp.; strain GC 4563): 16 µg/mL (≈ 14.6 µM)
MIC Streptococcus agalactiae (GC 4564) (Streptococcus sp.; strain GC 4564): 64 µg/mL (≈ 58.3 µM)
MIC Streptococcus pneumoniae (GC 4565) (Streptococcus sp.; strain GC 4565): 128 µg/mL (≈ 117 µM)
MIC Escherichia coli (ATCC 25922) (Escherichia coli; strain ATCC 25922, broth dilution): 32 µg/mL (≈ 29.1 µM)
MIC Escherichia coli (GC 4559) (Escherichia coli; strain GC 4559, broth dilution): 32 µg/mL (≈ 29.1 µM)
MIC Escherichia coli (GC 4560) (Escherichia coli; strain GC 4560, broth dilution): 8 µg/mL (≈ 7.28 µM)

N=C1NCC(C(O)C2NC(=O)C(Cc3ccc(OC4OC(CO)C(OC5OC6COC(c7ccccc7)OC6C(O)C5O)C(O)C4O)cc3)NC(=O)C(CC3CCCCC3)NC(=O)CNC(=O)C(CO)NC(=O)C(C(O)C3CNC(=N)N3C3OC(CO)C(O)C(O)C3O)NC2=O)N1 (stereo not drawn) [Example 199]
MIC Enterococcus avium (GC 4558) (Enterococcus sp.): 2 µg/mL (≈ 1.45 µM)
MIC Enterococcus faecalis (ATCC 29212) (Enterococcus sp.): 4 µg/mL (≈ 2.91 µM)
MIC Enterococcus faecalis (GC 2242) (Enterococcus sp.): 2 µg/mL (≈ 1.45 µM)
MIC Enterococcus faecalis (GC 2691) (Enterococcus sp.): 4 µg/mL (≈ 2.91 µM)
MIC Enterococcus faecalis (GC 3059) (Enterococcus sp.): 4 µg/mL (≈ 2.91 µM)
MIC Enterococcus faecalis (GC 4552) (Enterococcus sp.): 4 µg/mL (≈ 2.91 µM)
MIC Enterococcus faecalis (GC 4553) (Enterococcus sp.): 4 µg/mL (≈ 2.91 µM)
MIC Enterococcus faecalis (GC 4554) (Enterococcus sp.): 4 µg/mL (≈ 2.91 µM)
MIC Enterococcus faecalis (GC 6189) (Enterococcus sp.): 2 µg/mL (≈ 1.45 µM)
MIC Enterococcus faecium (GC 2243) (Enterococcus sp.): 4 µg/mL (≈ 2.91 µM)
MIC Enterococcus faecium (GC 4556) (Enterococcus sp.): 4 µg/mL (≈ 2.91 µM)
MIC Enterococcus faecium (GC 4557) (Enterococcus sp.): 2 µg/mL (≈ 1.45 µM)
MIC Enterococcus faecalis (ATCC 29212) (Enterococcus sp.; inoculum 5×10^5 CFU/mL, strain ATCC 29212): 4 µg/mL (≈ 2.91 µM)
MIC Enterococcus faecalis (GC 2242) (Enterococcus sp.; inoculum 5×10^5 CFU/mL, strain GC 2242): 2 µg/mL (≈ 1.45 µM)
MIC Enterococcus faecium (GC 2243) (Enterococcus sp.; inoculum 5×10^5 CFU/mL, strain GC 2243): 4 µg/mL (≈ 2.91 µM)
MIC Enterococcus faecalis (GC 2691) (Enterococcus sp.; inoculum 5×10^5 CFU/mL, strain GC 2691): 4 µg/mL (≈ 2.91 µM)
MIC Enterococcus faecalis (GC 3059) (Enterococcus sp.; inoculum 5×10^5 CFU/mL, strain GC 3059): 4 µg/mL (≈ 2.91 µM)
MIC Enterococcus faecalis (GC 4552) (Enterococcus sp.; inoculum 5×10^5 CFU/mL, strain GC 4552): 4 µg/mL (≈ 2.91 µM)
MIC Enterococcus faecalis (GC 4553) (Enterococcus sp.; inoculum 5×10^5 CFU/mL, strain GC 4553): 4 µg/mL (≈ 2.91 µM)
MIC Enterococcus faecalis (GC 4554) (Enterococcus sp.; inoculum 5×10^5 CFU/mL, strain GC 4554): 4 µg/mL (≈ 2.91 µM)
MIC Enterococcus faecium (GC 4556) (Enterococcus sp.; inoculum 5×10^5 CFU/mL, strain GC 4556): 4 µg/mL (≈ 2.91 µM)
MIC Enterococcus faecium (GC 4557) (Enterococcus sp.; inoculum 5×10^5 CFU/mL, strain GC 4557): 2 µg/mL (≈ 1.45 µM)
MIC Enterococcus avium (GC 4558) (Enterococcus sp.; inoculum 5×10^5 CFU/mL, strain GC 4558): 2 µg/mL (≈ 1.45 µM)
MIC Enterococcus faecalis (GC 6189) (Enterococcus sp.; inoculum 5×10^5 CFU/mL, strain GC 6189): 2 µg/mL (≈ 1.45 µM)
MIC Staphylococcus aureus (GC 1131) (Staphylococcus sp.; inoculum 5×10^5 CFU/mL): 2 µg/mL (≈ 1.45 µM)
MIC Staphylococcus aureus (ATCC 29213) (Staphylococcus sp.): 2 µg/mL (≈ 1.45 µM)
MIC Staphylococcus aureus (GC 1131) (Staphylococcus sp.): 2 µg/mL (≈ 1.45 µM)
MIC Staphylococcus aureus (GC 3051) (Staphylococcus sp.): 1 µg/mL (≈ 0.727 µM)
MIC Staphylococcus aureus (GC 3053) (Staphylococcus sp.): 2 µg/mL (≈ 1.45 µM)
MIC Staphylococcus aureus (GC 4541) (Staphylococcus sp.): 2 µg/mL (≈ 1.45 µM)
MIC Staphylococcus aureus (GC 4542) (Staphylococcus sp.): 1 µg/mL (≈ 0.727 µM)
MIC Staphylococcus aureus-SMITH (GC 4543) (Staphylococcus sp.): 1 µg/mL (≈ 0.727 µM)
MIC Staphylococcus aureus (GC 4544) (Staphylococcus sp.): 2 µg/mL (≈ 1.45 µM)
MIC Staphylococcus aureus (GC 4545) (Staphylococcus sp.): 1 µg/mL (≈ 0.727 µM)
MIC Staphylococcus haemolyticus (GC 4546) (Staphylococcus sp.): 1 µg/mL (≈ 0.727 µM)
MIC Coagulase Negative Staphylococcus (GC 4547) (Staphylococcus sp.): 2 µg/mL (≈ 1.45 µM)
MIC Coagulase Negative Staphylococcus (GC 4548) (Staphylococcus sp.): 0.5 µg/mL (≈ 0.364 µM)
MIC Coagulase Negative Staphylococcus (GC 4549) (Staphylococcus sp.): 0.5 µg/mL (≈ 0.364 µM)
MIC Coagulase Negative Staphylococcus (GC 4551) (Staphylococcus sp.): 1 µg/mL (≈ 0.727 µM)
MIC Streptococcus agalactiae (GC 4564) (Streptococcus sp.): <0.12 µg/mL
MIC Streptococcus pneumoniae (ATCC 6301) (Streptococcus sp.): <0.12 µg/mL
MIC Streptococcus pneumoniae (GC 1894) (Streptococcus sp.): <0.12 µg/mL
MIC Streptococcus pneumoniae (GC 4565) (Streptococcus sp.): <0.12 µg/mL
MIC Streptococcus pyogenes (GC 4563) (Streptococcus sp.): <0.12 µg/mL
MIC Streptococcus pneumoniae (ATCC 6301) (Streptococcus sp.; inoculum 5×10^5 CFU/mL, strain ATCC 6301): <0.12 µg/mL
MIC Streptococcus pneumoniae (GC 1894) (Streptococcus sp.; inoculum 5×10^5 CFU/mL, strain GC 1894): <0.12 µg/mL
MIC Streptococcus pyogenes (GC 4563) (Streptococcus sp.; inoculum 5×10^5 CFU/mL, strain GC 4563): <0.12 µg/mL
MIC Streptococcus agalactiae (GC 4564) (Streptococcus sp.; inoculum 5×10^5 CFU/mL, strain GC 4564): <0.12 µg/mL
MIC Streptococcus pneumoniae (GC 4565) (Streptococcus sp.; inoculum 5×10^5 CFU/mL, strain GC 4565): <0.12 µg/mL
MIC Escherichia coli (ATCC 25922) (Escherichia coli): 64 µg/mL (≈ 46.5 µM)
MIC Escherichia coli (GC 4559) (Escherichia coli): 32 µg/mL (≈ 23.3 µM)
MIC Escherichia coli (GC 4560) (Escherichia coli): 1 µg/mL (≈ 0.727 µM)

Source: US6914045B2, “Glycopeptide antibiotics” (Wyeth Holdings Corporation, priority 2001, dated 2005)
